Data from US12031897B2, “Target-locking single-molecule nanoscopy” (Memorial Sloan Kettering Cancer Center, priority 2019, dated 2024).
Values joined by “and” are separate entries in the source; they are usually repeats but may differ in a detail not shown here. Equal values may be shown once.

What was measured:
[1] = system: Sox2 foci at the Pou5f1 locus; assay: Sox2 cluster signal at Pou5f1 upon inhibition (live-cell confocal/STED scans); assay type: cell-based, mouse; conditions: Pou5f1
Text: Contrary to Brd4, Med22 and Cdk9, Sox2 clustering persists through transcription inhibition by either JQ1 or FVP (FIG. 8D). The differential sensitivities between factors and modes of transcription inhibition unveil a hierarchy of molecular transactions that control Pou5f1 transcription: Sox2 binding occurs upstream of Cdk9/Med22/Brd4 recruitment and accumulation of all of 4 regulatory factors occurs upstream of Pol II release into productive elongation. […] For real-time confocal and STED imaging, example implementations may program the wave generator to scan 2 μm×2 μm or 1 μm×1 μm xy areas in 0.8 sec or 0.2 sec respectively. 3D scanning was performed (via, e.g., detection system 150) by acquiring 5 xy scans while moving the stage by 0.5 μm in z between scans. TTL pulses corresponding to single-photon events from the APDs, together with the trigger pulses from the wave generator were detected using a field-programmable gate array (FPGA) data acquisition system (National Instruments, PCIe-7852R). Before imaging, cells were seeded onto 8-chamber coverglass (LabTek, 155411) coated with 5 μg/ml laminin (BioLamina LN511), in -2i media (OMG) or +2i media (NMG) and appropriate drugs. For SiR staining, cells were labeled with media containing 0.3 μM SiR-BG for 10 mins, at 37° C., followed by three washes with new media. Targeted integration of SNAP-tag in the endogenous Sox2, Cdk9, Brd4 and Med22 genes. To generate OMG or NMG SNAP-Sox2 targeted cells, OMG-1 or NMG mESCs (1×106) were transfected with 10 μg SNAP-Sox2 donor vector and 0.6 μg […] vector. 10 days after transfection, the cells were trypsinized, labeled with 0.3 μM SiR-BG for 10 mins, rinsed three times with new media, followed by immediate fluorescence-activated cell sorting (FACS). All the SiR-positive cells were collected, expanded for 2 weeks, trypsinized, labeled with SiR-BG and sorted again. Almost 100% SNAP positive pools were obtained from the second round of sorting and individual clones were picked and expanded. Homozygous clones (dubbed “OMG SNAP-Sox2 clone 8” and NMG SNAP-Sox2 clone 3'' respectively) with both Sox2 alleles correctly targeted with SNAP-tag integrations and that show SiR nuclear staining were selected for all further experiments.

[2] = biological target: T1, Brd4 foci at the Pou5f1 locus (Mus musculus, UniProt Q9ESU6); assay: Brd4 cluster signal at Pou5f1 upon inhibition (live-cell confocal/STED scans); assay type: cell-based; conditions: Pou5f1
T1 construct: integrating a SNAP-tag at the N-terminus of the endogenous Brd4; endogenous in cells; host or cells: mouse ESCs OMG-1, homozygous SNAP-Brd4 knock-in clone 9 (printed as 'OMG SNAP-Cdk9 clone 9')
Method: For real-time confocal and STED imaging, example implementations may program the wave generator to scan 2 μm×2 μm or 1 μm×1 μm xy areas in 0.8 sec or 0.2 sec respectively. 3D scanning was performed (via, e.g., detection system 150) by acquiring 5 xy scans while moving the stage by 0.5 μm in z between scans. TTL pulses corresponding to single-photon events from the APDs, together with the trigger pulses from the wave generator were detected using a field-programmable gate array (FPGA) data acquisition system (National Instruments, PCIe-7852R).
(§1) Before imaging, cells were seeded onto 8-chamber coverglass (LabTek, 155411) coated with 5 μg/ml laminin (BioLamina LN511), in −2i media (OMG) or +2i media (NMG) and appropriate drugs. For SiR staining, cells were labeled with media containing 0.3 μM SiR-BG for 10 mins, at 37° C., followed by three washes with new media.
To generate OMG or NMG SNAP-Brd4 targeted cells, OMG-1 or NMG mESCs (1×106) were transfected with 10 μg SNAP-Brd4 donor vector and 0.6 μg espCas9-gRNA-Brd4 vector. 10 days after transfection, the cells were trypsinized, labeled with SiR-BG and subjected to FACS, generating a first-round SiR-positive pool. This pool was then expanded, stained with SiR-BG and subjected to second FACS round and individual clones were picked and expanded.

[3] = system: Pou5f1 transcription site (MCP-mNeonGreen nascent RNA); assay: MCP-mNeonGreen nascent transcription at the endogenous Pou5f1 locus in mESCs (live-cell imaging); assay type: cell-based, mouse
Method: All the mESCs were cultured and maintained in +2i media with appropriate selection drugs on 0.1% gelatin-coated dishes, at 37° C. in a humidified 5% CO2 incubator. +2i media contain D-MEM (Thermo Fisher Scientific 10313021), 15% fetal bovine serum (Gemini Bio 100-500), 0.1 mM β-mercaptoethanol (Thermo Fisher Scientific 21985023), 2 mM L-alanyl-L-glutamine (Thermo Fisher Scientific 35050079), 1×MEM nonessential amino acids (Thermo Fisher Scientific 11140076), 1000 U/mL LIF (Millipore ESG1107), […] (Millipore 361559) and 1 μM PD0325901 (Axon Medichem 1408). OMG and NMG SNAP-Rpb1 cells were cultured with +2i media plus 3 μg/ml α-amanitin.
as §1
Wide-Field Cell Imaging Experiments. Live cell imaging experiments (tdPCP-EGFP and MCP-mNeonGreen tracking). For time-lapse imaging, a z-stack of 11 frames at 1 frame/second was acquired, by stepping the sample along the z-axis using the nanopositioning stage (250 nm steps). The CCD data were analyzed using IDL 6.4 (ITTVIS). Maximum projection images were calculated for each stack, and the resulting 11 sec/frame movie was used to track the intensities of individual tdPCP-EGFP-tagged transcription sites. A particle tracking routine (Crocker and Grier, 1996) was used for finding the positions of the transcription site in each frame and linking them into a 2D trajectory. The intensity trace of tdPCP-EGFP at the transcription site was corrected for photo-bleaching using the time trace of tdPCP-EGFP in a nearby nuclear region. The auto-correlation function was calculated (for the tdPCP-EGFP fluctuation analysis), or the data were imported in Origin 8.5.0 (OriginLab) and the trace fitted to a single-exponential decay (for the transcription inhibition experiments).

[4] = system: H3K27ac at the Pou5f1 locus; assay: ChIP-qPCR analysis of H3K27ac after A-485 treatment; assay type: cell-based, mouse; conditions: for H3K27ac characteristic decay time: 1 μM A-485
Method: ChIP-qPCR analysis of H3K27ac after A-485 treatment. For H3K27ac and H3 ChIP-qPCR experiments, confluent 10 cm dishes (˜3×10^6 OMG SNAP-Sox2 cells) were treated with 1 μM A-485 (Structural Genomics Consortium) or 0.1% v/v DMSO for the indicated times. Fixation, cell lysis, sonicated chromatin preparation, immunoprecipitation and qPCR analysis were performed as described for OMG SNAP-Rpb1 cells in the previous section, with the exception that 5 μg H3K27ac antibody (Active Motif 39685) or 5 μg H3 antibody (Active Motif 39763) were used for each IP respectively.

Question: How did the “Sox2 cluster size characteristic decay time” value ([1]; upon A-485 inhibition) turn out when CNC(=O)Nc1ccc2c(c1)CC[C@@]21OC(=O)N(CC(=O)N(Cc2ccc(F)cc2)[C@@H](C)C(F)(F)F)C1=O [A-485] was run?
Answer: The value was 12.5 min.

Question: What about the “Sox2 signal exponential fit τ” value ([1]; upon adding 1 μM A-485 (FIG. 8I legend)) of the same molecule?
Answer: Its value is 12.5 ± 8.6 s.

Question: What about the “Brd4 signal exponential fit τ” value ([2]; inhibition with 1 μM A-485 (FIG. 16J legend)) of the same molecule?
Answer: Its value is 8 ± 1 s.

Question: And the “Brd4 cluster shrinking time” value ([2]; upon A-485 inhibition)?
Answer: Its value is 8 min.

Question: And the “time until nascent Pou5f1 transcription shuts down” value ([3]; 1 μM A-485)?
Answer: The value was at most 20 min.

Question: What about the “MCP decay time upon p300/CBP HAT inhibition” value ([3]; Pou5f1, mESCs, 1 μM A-485, mean±S.D., n=17) of the same molecule?
Answer: The value was 635 s and 635 ± 350 s.

Question: And the transcription shutdown time-scale ([3]; Pou5f1, upon A-485 inhibition)?
Answer: The transcription shutdown time-scale was 10.5 min.

Question: What about the “response of individual Pou5f1 transcription sites at intermediate inhibitor concentration” value ([3]; intermediate [A-485] or [JQ1]) of the same molecule?
Answer: Its value is “all-or-none responses”.

Question: What about the “H3K27ac characteristic decay time” value ([4]; primer pair 4) of the same molecule?
Answer: The value was 7 ± 2 min.

Question: And the “H3K27ac characteristic decay time” value ([4]; primer pair 5)?
Answer: The value was 7 ± 4 min.

Question: What about the “H3K27ac characteristic decay time” value ([4]; primer pair 6) of the same molecule?
Answer: The value was 5 ± 1 min.

Question: What about the “H3K27ac characteristic decay time” value ([4]; primer pair 7) of the same molecule?
Answer: Its value is 13 ± 4 min.

Question: What about the “H3K27ac loss kinetics” value ([4]; upon A-485 inhibition) of the same molecule?
Answer: The value was about 7 min.
